For 16 compounds, Ki results are on record in patent US12384772B2, “Inhibitors” (VIVORYON THERAPEUTICS N.V., priority 2017, dated 2025).

Where two headings read alike, the source gives them in different places.

A word on the Ki: it is a dissociation constant, usually derived from enzyme kinetics or from competition with a known ligand.

The assay deals with Glutaminyl cyclase (QC) (Homo sapiens (Human), UniProt Q16769). Description: Glutaminyl cyclase assay, determination of IC50 values and calculation of Ki values (H-Gln-AMC substrate, pGAP auxiliary enzyme; pH 8.0 or pH 6.0). In kind it is biochemical. On the procedure:
10 mM compound stock solutions were prepared in DMSO. For IC50 determination compound stocks were serially diluted (1:3) in DMSO.
All measurements were performed with an EnSpire Perkin Elmer multimode reader using glutaminyl-7-amino-4-methylcoumarin (H-Gin-AMC) as substrate and recombinant pyroglutamyl aminopeptidase (pGAP) as auxiliary enzyme. Reactions were carried out at ambient temperature in black 96-well half area microplates. Each sample consisted of 1 μl test compound solution or solvent (DMSO) and 49 μl QC appropriately diluted in assay buffer (50 mM Tris/HCl, pH 8.0 or 50 mM MES buffer, pH=6.0). After a 10 min preincubation at ambient temperature the enzyme reaction was started by adding 50 μl of Gln-AMC-substrate/pGAP mixture in assay buffer. Final substrate concentrations were 50 and 200 μM for measurement at pH 8.0 or 6.0, respectively. Release of flourogenic AMC were recorded at excitation/emission wavelengths of 380/460 nm. Initial velocity of the enzyme reaction was calculated by linear regression of the first 10 data points using the Enspire Manager software. Final evaluation and calculation of IC50s were performed using GraphPad Prism software.
Ki-values were calculated according to the following formula: Ki=IC50/(1+[S]/Km), where: […]

Where [1] appears, read: pH 6, read-out: hQC Ki [μM] pH6.
The mark [2] stands for this setting: pH 8, read-out: hQC Ki [μM] pH8.

Glutaminyl cyclase (QC), sequence (Q16769 29-361): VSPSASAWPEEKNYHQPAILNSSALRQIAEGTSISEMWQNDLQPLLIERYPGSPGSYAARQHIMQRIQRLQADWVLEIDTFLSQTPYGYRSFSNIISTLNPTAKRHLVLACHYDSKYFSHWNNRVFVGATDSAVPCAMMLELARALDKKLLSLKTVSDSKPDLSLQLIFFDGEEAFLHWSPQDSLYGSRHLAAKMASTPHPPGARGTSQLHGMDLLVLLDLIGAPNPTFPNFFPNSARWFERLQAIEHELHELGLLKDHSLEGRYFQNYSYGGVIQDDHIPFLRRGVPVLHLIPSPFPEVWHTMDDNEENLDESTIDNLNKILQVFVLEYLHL

For `Nc1nnc(C2CCN(S(=O)(=O)c3ccc(F)cc3)CC2)s1` [M2, 5-[1-(4-fluorobenzenesulfonyl)piperidin-4-yl]-1,3,4-thiadiazol-2-amine], the inhibitory constant (Ki) reads like this: under setting [1], 1.18 µM; under setting [2], 1.6 µM. Consider `Cn1cnnc1C1CCN(S(=O)(=O)c2ccc(F)cc2)CC1` [N1, 1-(4-fluorobenzenesulfonyl)-4-(4-methyl-4H-1,2,4-triazol-3-yl)piperidine], for which the Ki is, setting by setting: under setting [1], 3.05 µM; under setting [2], 3.3 µM. For `COc1ccc(-c2ccccc2NCc2ccc3[nH]cnc3c2)cc1` [O3, N-(1H-1,3-benzodiazol-5-ylmethyl)-2-(4-methoxyphenyl)aniline] the same measures were 1.44 µM and 1.65 µM. For `COc1ccc(-c2ncccc2NCc2ccc3[nH]cnc3c2)cc1` [O4, N-(1H-1,3-benzodiazol-5-ylmethyl)-2-(4-methoxyphenyl)pyridin-3-amine] the same measures were 9.52 µM and 2.96 µM. In the case of `COc1ccc(-c2cccnc2NCc2ccc3[nH]cnc3c2)cc1` [O5, N-(1H-1,3-benzodiazol-5-ylmethyl)-3-(4-methoxyphenyl)pyridin-2-amine], the inhibition constant Ki is, setting by setting: under setting [1], 2.74 µM; under setting [2], 2.41 µM. Taken in the same sequence, the figures for `COc1ccc(-c2cnccc2NCc2ccc3[nH]cnc3c2)cc1` [O6, N-(1H-1,3-benzodiazol-5-ylmethyl)-3-(4-methoxyphenyl)pyridin-4-amine] were 15.1 µM and 10.8 µM.

Take `COc1ccc(-c2ccncc2NCc2ccc3[nH]cnc3c2)cc1` [O7, N-(1H-1,3-benzodiazol-5-ylmethyl)-4-(4-methoxyphenyl)pyridin-3-amine]: the Ki reads like this: under setting [1], 11.1 µM; under setting [2], 4.24 µM. In the case of `COc1ccc(-c2cncnc2NCc2ccc3[nH]cnc3c2)cc1` [O8, N-(1H-1,3-benzodiazol-5-ylmethyl)-5-(4-methoxyphenyl)pyrimidin-4-amine], the inhibitory constant (Ki) under setting [2] was 18.3 µM. Regarding `COc1ccc(-c2nccnc2NCc2ccc3[nH]cnc3c2)cc1` [O9, N-(1H-1,3-benzodiazol-5-ylmethyl)-3-(4-methoxyphenyl)pyrazin-2-amine], the Ki is, setting by setting: under setting [1], 1.9 µM; under setting [2], 2.21 µM.

Regarding `COc1ccc(-c2cnccc2NCc2ccc3[nH]cnc3c2)cc1OC` [O10, N-(1H-1,3-benzodiazol-5-ylmethyl)-3-(3,4-dimethoxyphenyl)pyridin-4-amine], the inhibitory constant (Ki) is 1.63 µM under setting [1] and 0.88 µM under setting [2]. Taken in the same sequence, the figures for `COc1ccc(-c2nccnc2NCc2ccc3[nH]cnc3c2)cc1OC` [O12, N-(1H-1,3-benzodiazol-5-ylmethyl)-3-(3,4-dimethoxyphenyl)pyrazin-2-amine] were 0.13 µM and 0.42 µM. For `Fc1ccc(-c2nccnc2NCc2ccc3[nH]cnc3c2)cc1` [O15, N-(1H-1,3-benzodiazol-5-ylmethyl)-3-(4-fluorophenyl)pyrazin-2-amine] the same measures were 10.5 µM and 11.7 µM. As for `c1ccc(Oc2ccc(-c3ccccc3NCc3ccc4[nH]cnc4c3)cc2)cc1` [O16, N-(1H-1,3-benzodiazol-5-ylmethyl)-2-(4-phenoxyphenyl)aniline], the Ki by setting is: under setting [1], 4.34 µM; under setting [2], 2.11 µM. For the compound `c1ccc(-c2ccc(OC3CCCCC3)cc2)c(NCc2ccc3[nH]cnc3c2)c1` [O17, N-(1H-1,3-benzodiazol-5-ylmethyl)-2-[4-(cyclohexyloxy)phenyl]aniline], the inhibition constant Ki under setting [1] was 2.03 µM and the Ki under setting [2] was 4.17 µM. Turning to `CC(C)Oc1ccc(-c2ccccc2NCc2ccc3[nH]cnc3c2)cc1` [O19, N-(1H-1,3-benzodiazol-5-ylmethyl)-2-[4-(propan-2-yloxy)phenyl]aniline], the Ki reads like this: under setting [1], 1.53 µM; under setting [2], 3.39 µM. Taken in the same sequence, the figures for `COc1ccc(-c2c(C)cccc2NCc2ccc3[nH]cnc3c2)cc1` [O20, N-(1H-1,3-benzodiazol-5-ylmethyl)-2-(4-methoxyphenyl)-3-methylaniline] were 2.38 µM and 1.64 µM.
